Reference: US11873309B2, “Heterocyclic compounds as immunomodulators” (Incyte Corporation, priority 2016, dated 2024)
pIC50: −log10 of the molar value.

Each compound was assayed against T1, PD-1/PD-L1 protein/protein interaction (recombinant human PD-L1 protein (19-238), recombinant human PD-1 protein (25-167)) (Homo sapiens, UniProt Q9NZQ7) (assay: PD-1/PD-L1 Homogeneous Time-Resolved Fluorescence (HTRF) Binding Assay). Conditions: 25° C., PBS buffer pH 7.4, 40 minutes preincubation with inhibitors.
T1 construct: Recombinant human PD-L1 protein (19-238) with a His-tag at the C-terminus; purchased AcroBiosystems PD1-H5229 (PD-L1); PD1-H5257 (PD-1)
Method: Example A. PD-1/PD-L1 Homogeneous Time-Resolved Fluorescence (HTRF) Binding Assay
The assays were conducted in a standard black 384-well polystyrene plate with a final volume of 20 μL. Inhibitors were first serially diluted in DMSO and then added to the plate wells before the addition of other reaction components. The final concentration of DMSO in the assay was 1%. The assays were carried out at 25° C. in the PBS buffer (pH 7.4) with 0.05% Tween-20 and 0.1% BSA. Recombinant human PD-L1 protein (19-238) with a His-tag at the C-terminus was purchased from AcroBiosystems (PD1-H5229). Recombinant human PD-1 protein (25-167) with Fc tag at the C-terminus was also purchased from AcroBiosystems (PD1-H5257). PD-L1 and PD-1 proteins were diluted in the assay buffer and 10 μL was added to the plate well. Plates were centrifuged and proteins were preincubated with inhibitors for 40 minutes. The incubation was followed by the addition of 10 μL of HTRF detection buffer supplemented with Europium cryptate-labeled anti-human IgG (PerkinElmer-AD0212) specific for Fc and anti-His antibody conjugated to SureLight®-Allophycocyanin (APC, PerkinElmer-AD0059H). After centrifugation, the plate was incubated at 25° C. for 60 min. before reading on a PHERAstar FS plate reader (665 nm/620 nm ratio). Final concentrations in the assay were […], 10 nM PD-L1, 1 nM europium anti-human IgG and 20 nM anti-His-Allophycocyanin. IC50 determination was performed by fitting the curve of percent control activity versus the log of the inhibitor concentration using the GraphPad Prism 5.0 software.

T1 sequence (Q9NZQ7 19-238): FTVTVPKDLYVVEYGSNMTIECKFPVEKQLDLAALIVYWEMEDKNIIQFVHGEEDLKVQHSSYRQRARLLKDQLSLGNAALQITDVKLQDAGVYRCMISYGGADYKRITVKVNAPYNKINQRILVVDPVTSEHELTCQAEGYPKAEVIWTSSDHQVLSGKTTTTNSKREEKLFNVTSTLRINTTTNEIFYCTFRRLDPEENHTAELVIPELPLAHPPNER

Structure (SMILES) | pIC50
COc1cccc(-c2cccc(NC(=O)c3nc4c(s3)CNCC4)c2C#N)c1F [Example 5, N-(2-cyano-2′-fluoro-3′-methoxybiphenyl-3-yl)-4,5,6,7-tetrahydro[1,3]thiazolo[5,4-c]pyridine-2-carboxamide] | ≥ 7.00
N#Cc1c(NC(=O)c2cc3n(n2)CCNC3)cccc1-c1ccc2c(c1)OCCO2 [Example 10, N-[2-cyano-3-(2,3-dihydro-1,4-benzodioxin-6-yl)phenyl]-4,5,6,7-tetrahydropyrazolo[1,5-a]pyrazine-2-carboxamide] | 6.30 to 7.00
N#Cc1c(NC(=O)c2nc3c(s2)CNCC3)cccc1C1=CCCCC1 [Example 7, N-(2-cyano-3-cyclohex-1-en-1-ylphenyl)-4,5,6,7-tetrahydro[1,3]thiazolo[5,4-c]pyridine-2-carboxamide] | ≥ 7.00
N#Cc1c(NC(=O)c2nc3c(s2)CNCC3)cccc1-c1c(F)cccc1F [Example 9, N-(2-cyano-2′,6′-difluorobiphenyl-3-yl)-4,5,6,7-tetrahydro[1,3]thiazolo[5,4-c]pyridine-2-carboxamide] | ≥ 7.00
Cn1c(C(=O)Nc2cccc(-c3ccc4c(c3)OCCO4)c2C#N)nc2c1CCN(CCO)C2 [Example 13, N-(2-cyano-3-(2,3-dihydrobenzo[b][1,4]dioxin-6-yl)phenyl)-5-(2-hydroxyethyl)-1-methyl-4,5,6,7-tetrahydro-1H-imidazo[4,5-c]pyridine-2-carboxamide] | ≥ 7.00
N#Cc1c(NC(=O)c2nc3c(s2)CNCC3)cccc1-c1ccccc1F [Example 4, N-(2-cyano-2′-fluorobiphenyl-3-yl)-4,5,6,7-tetrahydro[1,3]thiazolo[5,4-c]pyridine-2-carboxamide] | ≥ 7.00

Second part, the compound after the results:

pIC50 | Structure (SMILES)
≥ 7.00 | COc1cccc(-c2cccc(NC(=O)c3nc4c(n3C)CCNC4)c2C#N)c1F [Example 39, N-(2-cyano-2′-fluoro-3′-methoxybiphenyl-3-yl)-1-methyl-4,5,6,7-tetrahydro-1H-imidazo[4,5-c]pyridine-2-carboxamide]
≥ 7.00 | Cc1c(NC(=O)c2nc3c(s2)CN(CCO)CC3)cccc1-c1ccccc1 [Example 27, 5-(2-hydroxyethyl)-N-(2-methylbiphenyl-3-yl)-4,5,6,7-tetrahydrothiazolo[5,4-c]pyridine-2-carboxamide]
≥ 7.00 | Cc1c(NC(=O)c2nc3c(s2)CNCC3)cccc1-c1cccc2[nH]ncc12 [Example 25, N-[3-(1H-indazol-4-yl)-2-methylphenyl]-4,5,6,7-tetrahydro[1,3]thiazolo[5,4-c]pyridine-2-carboxamide]
≥ 7.00 | COc1cccc(-c2cccc(NC(=O)c3cn4c(n3)CNCC4)c2C#N)c1F [Example 19, N-(2-cyano-2′-fluoro-3′-methoxybiphenyl-3-yl)-5,6,7,8-tetrahydroimidazo[1,2-a]pyrazine-2-carboxamide]
≥ 7.00 | COc1cccc(-c2cccc(NC(=O)c3nc4c(n3C)CCNC4)c2C)c1F [Example 22, N-(2′-fluoro-3′-methoxy-2-methylbiphenyl-3-yl)-1-methyl-4,5,6,7-tetrahydro-1H-imidazo[4,5-c]pyridine-2-carboxamide]
